# ChEMBL document CHEMBL5291721, “A preclinical secondary pharmacology resource illuminates target-adverse drug reaction associations of marketed drugs” (Nat Commun, 2023)
# What was measured:
# [1] = target: T1, Alpha-2B adrenergic receptor (Homo sapiens, UniProt P18089)
# T1 sequence (P18089 whole entry): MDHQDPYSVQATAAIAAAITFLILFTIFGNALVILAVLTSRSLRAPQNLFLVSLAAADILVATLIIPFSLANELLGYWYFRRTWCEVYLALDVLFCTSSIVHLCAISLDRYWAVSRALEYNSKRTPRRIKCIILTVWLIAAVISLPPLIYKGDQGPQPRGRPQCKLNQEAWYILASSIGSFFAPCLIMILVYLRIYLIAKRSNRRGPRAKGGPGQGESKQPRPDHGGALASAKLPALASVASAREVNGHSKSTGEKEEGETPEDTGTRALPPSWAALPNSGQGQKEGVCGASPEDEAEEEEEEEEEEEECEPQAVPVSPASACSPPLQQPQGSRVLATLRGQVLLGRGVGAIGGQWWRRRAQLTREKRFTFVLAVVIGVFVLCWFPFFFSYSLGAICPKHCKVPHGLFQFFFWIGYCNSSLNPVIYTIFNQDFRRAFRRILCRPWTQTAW
# [2] = target: Sodium-dependent serotonin transporter (Homo sapiens, UniProt P31645)
# Sequence of Sodium-dependent serotonin transporter (P31645 whole entry): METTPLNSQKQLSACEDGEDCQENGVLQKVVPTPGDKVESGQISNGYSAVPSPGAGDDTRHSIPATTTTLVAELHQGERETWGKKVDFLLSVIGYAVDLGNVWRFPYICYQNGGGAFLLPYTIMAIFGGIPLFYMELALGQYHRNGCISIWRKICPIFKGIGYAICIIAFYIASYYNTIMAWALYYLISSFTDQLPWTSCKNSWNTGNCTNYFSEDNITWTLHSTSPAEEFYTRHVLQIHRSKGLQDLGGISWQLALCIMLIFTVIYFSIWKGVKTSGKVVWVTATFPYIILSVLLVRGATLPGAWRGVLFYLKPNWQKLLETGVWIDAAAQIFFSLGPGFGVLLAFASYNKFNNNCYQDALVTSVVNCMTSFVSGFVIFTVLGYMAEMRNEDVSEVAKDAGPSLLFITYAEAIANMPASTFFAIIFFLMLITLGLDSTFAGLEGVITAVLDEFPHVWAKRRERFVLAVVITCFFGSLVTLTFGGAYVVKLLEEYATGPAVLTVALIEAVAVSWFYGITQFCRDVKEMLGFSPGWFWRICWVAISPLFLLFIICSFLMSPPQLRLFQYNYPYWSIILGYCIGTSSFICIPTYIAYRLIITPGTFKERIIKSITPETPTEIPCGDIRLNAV
# [3] = target: T2, Alpha-1A adrenergic receptor (Homo sapiens, UniProt P35348)
# T2 sequence (P35348 whole entry): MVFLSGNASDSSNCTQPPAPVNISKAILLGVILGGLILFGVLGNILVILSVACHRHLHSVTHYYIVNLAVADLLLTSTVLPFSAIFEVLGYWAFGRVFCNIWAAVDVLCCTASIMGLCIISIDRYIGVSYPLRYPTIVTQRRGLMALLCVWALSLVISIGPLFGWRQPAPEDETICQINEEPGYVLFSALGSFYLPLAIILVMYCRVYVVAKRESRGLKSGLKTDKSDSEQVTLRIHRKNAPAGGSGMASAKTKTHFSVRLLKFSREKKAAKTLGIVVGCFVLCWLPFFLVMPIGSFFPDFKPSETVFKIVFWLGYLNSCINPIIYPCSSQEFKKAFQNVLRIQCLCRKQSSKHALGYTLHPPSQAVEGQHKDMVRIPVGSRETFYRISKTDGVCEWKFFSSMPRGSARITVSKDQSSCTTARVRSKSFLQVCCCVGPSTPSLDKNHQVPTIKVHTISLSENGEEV
# [4] = target: Beta-3 adrenergic receptor (Homo sapiens, UniProt P13945)
# Sequence of Beta-3 adrenergic receptor (P13945 whole entry): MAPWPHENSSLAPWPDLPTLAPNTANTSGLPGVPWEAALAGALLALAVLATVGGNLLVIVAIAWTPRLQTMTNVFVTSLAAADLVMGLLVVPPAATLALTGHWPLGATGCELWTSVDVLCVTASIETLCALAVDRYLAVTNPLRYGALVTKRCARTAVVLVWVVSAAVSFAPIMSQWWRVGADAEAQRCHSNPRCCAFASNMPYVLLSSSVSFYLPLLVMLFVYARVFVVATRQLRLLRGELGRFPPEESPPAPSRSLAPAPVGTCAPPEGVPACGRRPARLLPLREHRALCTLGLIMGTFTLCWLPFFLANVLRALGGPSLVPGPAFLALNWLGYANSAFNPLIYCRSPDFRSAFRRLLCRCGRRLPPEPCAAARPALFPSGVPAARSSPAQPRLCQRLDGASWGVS
# [5] = target: Cannabinoid receptor 1 (Homo sapiens, UniProt P21554)
# Sequence of Cannabinoid receptor 1 (P21554 whole entry): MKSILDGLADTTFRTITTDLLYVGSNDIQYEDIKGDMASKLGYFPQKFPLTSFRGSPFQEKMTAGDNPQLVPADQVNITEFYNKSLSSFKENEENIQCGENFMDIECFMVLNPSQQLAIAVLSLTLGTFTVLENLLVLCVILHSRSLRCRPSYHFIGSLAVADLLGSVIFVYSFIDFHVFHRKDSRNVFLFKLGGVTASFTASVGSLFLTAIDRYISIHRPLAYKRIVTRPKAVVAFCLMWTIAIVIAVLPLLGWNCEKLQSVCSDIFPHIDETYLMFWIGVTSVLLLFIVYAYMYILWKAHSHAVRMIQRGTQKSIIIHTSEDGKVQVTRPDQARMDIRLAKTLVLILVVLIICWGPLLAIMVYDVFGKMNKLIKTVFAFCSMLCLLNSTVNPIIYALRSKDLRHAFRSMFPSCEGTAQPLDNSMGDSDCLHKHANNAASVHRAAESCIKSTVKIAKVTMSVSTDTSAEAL
# [6] = target: 5-hydroxytryptamine receptor 2B (Homo sapiens, UniProt P41595)
# Sequence of 5-hydroxytryptamine receptor 2B (P41595 whole entry): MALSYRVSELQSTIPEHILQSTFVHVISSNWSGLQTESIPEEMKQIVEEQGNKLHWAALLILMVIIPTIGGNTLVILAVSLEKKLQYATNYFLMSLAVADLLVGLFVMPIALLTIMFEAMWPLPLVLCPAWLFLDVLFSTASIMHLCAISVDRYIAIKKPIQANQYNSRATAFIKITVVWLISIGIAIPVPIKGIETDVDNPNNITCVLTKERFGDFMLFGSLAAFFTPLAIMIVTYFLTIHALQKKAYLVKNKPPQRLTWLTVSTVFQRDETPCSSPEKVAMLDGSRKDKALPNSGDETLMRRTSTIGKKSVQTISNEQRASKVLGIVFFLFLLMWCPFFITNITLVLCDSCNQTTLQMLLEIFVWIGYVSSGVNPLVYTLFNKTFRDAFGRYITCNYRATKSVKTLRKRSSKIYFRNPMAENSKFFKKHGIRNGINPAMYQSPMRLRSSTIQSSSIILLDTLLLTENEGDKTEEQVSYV
# [7] = target: Melanocortin receptor 4 (Homo sapiens, UniProt P32245)
# Sequence of Melanocortin receptor 4 (P32245 whole entry): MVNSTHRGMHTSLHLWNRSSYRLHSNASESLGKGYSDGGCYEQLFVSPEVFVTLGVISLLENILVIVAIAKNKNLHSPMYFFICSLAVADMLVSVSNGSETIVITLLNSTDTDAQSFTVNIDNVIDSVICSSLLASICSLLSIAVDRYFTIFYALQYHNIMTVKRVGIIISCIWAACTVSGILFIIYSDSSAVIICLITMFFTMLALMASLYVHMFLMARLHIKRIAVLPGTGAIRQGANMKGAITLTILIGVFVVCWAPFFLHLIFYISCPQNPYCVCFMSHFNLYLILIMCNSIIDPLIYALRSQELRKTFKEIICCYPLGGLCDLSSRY
# [8] = target: T3, Progesterone receptor (Homo sapiens, UniProt P06401)
# T3 sequence (P06401 whole entry): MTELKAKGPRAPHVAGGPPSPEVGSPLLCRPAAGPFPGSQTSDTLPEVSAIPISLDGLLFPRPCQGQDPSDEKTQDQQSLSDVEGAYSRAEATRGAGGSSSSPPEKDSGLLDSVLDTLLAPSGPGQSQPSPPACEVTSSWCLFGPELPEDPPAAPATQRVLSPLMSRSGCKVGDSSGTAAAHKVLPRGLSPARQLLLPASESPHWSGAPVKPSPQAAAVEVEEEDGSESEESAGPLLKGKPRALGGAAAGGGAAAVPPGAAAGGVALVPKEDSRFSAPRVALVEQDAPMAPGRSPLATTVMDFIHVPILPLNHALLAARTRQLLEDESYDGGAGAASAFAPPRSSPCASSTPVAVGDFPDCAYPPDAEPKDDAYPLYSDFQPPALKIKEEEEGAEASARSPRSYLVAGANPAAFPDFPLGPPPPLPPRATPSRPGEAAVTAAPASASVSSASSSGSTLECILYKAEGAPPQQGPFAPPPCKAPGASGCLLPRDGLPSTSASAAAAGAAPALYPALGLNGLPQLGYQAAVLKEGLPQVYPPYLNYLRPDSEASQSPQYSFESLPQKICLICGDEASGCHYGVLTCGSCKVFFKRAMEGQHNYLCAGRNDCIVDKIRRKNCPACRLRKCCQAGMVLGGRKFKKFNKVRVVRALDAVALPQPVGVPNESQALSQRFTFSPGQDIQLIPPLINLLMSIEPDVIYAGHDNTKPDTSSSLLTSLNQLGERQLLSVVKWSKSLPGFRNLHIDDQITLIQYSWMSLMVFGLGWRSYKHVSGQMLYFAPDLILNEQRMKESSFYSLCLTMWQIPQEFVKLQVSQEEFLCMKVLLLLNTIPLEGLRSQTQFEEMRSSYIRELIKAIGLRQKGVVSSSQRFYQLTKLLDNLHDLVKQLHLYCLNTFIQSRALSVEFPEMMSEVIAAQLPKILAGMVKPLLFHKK
# [9] = target: T4, Peroxisome proliferator-activated receptor gamma (Homo sapiens, UniProt P37231); type: functional
# T4 sequence (P37231 whole entry): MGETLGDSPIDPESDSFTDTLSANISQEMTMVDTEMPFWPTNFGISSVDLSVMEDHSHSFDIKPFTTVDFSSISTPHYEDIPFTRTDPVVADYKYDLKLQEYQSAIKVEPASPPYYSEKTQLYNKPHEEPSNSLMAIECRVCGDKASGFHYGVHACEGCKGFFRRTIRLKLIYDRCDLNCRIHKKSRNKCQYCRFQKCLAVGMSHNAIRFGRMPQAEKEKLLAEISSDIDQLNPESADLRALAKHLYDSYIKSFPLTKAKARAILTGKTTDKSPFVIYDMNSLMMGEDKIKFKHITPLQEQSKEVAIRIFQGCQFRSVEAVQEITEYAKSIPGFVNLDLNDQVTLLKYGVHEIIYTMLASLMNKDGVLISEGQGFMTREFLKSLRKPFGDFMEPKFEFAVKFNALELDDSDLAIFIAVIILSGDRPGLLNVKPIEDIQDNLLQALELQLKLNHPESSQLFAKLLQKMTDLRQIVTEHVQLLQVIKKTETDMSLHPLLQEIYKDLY
# [10] = target: T5, Gamma-aminobutyric acid receptor subunit alpha-1/alpha-2/beta-2/gamma-2 (Homo sapiens, UniProt P14867+P18507+P47869+P47870); type: functional, cell-based
# T5 sequence (P14867 whole entry): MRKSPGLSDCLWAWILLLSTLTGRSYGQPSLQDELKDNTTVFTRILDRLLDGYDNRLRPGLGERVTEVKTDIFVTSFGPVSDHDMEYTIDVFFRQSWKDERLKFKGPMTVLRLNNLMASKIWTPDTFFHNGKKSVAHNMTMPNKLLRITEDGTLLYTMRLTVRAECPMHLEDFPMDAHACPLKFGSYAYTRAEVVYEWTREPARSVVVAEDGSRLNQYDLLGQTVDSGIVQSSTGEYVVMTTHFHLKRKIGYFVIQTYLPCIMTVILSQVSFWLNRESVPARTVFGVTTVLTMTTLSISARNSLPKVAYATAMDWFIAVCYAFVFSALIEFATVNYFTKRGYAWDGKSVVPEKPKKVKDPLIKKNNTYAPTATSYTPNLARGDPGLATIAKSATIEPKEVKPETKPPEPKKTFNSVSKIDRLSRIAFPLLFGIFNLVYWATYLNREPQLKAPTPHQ
# T5 sequence (P47870 whole entry): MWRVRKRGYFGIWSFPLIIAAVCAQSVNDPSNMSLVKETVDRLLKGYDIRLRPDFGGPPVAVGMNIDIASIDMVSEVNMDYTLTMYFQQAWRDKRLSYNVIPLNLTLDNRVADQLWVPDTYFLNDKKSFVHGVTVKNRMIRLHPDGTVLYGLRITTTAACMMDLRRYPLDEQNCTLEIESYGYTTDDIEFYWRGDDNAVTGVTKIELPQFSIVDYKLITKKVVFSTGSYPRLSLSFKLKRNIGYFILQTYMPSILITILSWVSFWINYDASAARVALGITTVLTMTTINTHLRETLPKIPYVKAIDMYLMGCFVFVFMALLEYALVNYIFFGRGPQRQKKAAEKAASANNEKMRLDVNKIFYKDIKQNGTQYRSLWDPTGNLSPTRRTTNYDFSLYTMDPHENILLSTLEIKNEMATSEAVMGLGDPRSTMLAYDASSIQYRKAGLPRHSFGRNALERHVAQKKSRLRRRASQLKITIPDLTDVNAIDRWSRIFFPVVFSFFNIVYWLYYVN
# T5 sequence (P18507 whole entry): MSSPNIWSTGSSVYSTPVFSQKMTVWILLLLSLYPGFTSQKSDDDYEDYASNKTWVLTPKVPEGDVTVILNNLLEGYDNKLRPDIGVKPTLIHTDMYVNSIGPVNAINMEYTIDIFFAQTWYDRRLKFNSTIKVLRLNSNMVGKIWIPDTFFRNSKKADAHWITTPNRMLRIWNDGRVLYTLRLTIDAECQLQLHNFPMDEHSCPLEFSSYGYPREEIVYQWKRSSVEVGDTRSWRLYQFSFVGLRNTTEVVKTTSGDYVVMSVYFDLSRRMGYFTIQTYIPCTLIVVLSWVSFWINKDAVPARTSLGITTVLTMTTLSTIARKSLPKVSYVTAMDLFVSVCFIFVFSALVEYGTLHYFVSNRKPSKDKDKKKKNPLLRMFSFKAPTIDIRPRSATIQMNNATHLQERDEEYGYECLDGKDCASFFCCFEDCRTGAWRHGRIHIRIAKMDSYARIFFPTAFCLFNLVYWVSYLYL
# T5 sequence (P47869 whole entry): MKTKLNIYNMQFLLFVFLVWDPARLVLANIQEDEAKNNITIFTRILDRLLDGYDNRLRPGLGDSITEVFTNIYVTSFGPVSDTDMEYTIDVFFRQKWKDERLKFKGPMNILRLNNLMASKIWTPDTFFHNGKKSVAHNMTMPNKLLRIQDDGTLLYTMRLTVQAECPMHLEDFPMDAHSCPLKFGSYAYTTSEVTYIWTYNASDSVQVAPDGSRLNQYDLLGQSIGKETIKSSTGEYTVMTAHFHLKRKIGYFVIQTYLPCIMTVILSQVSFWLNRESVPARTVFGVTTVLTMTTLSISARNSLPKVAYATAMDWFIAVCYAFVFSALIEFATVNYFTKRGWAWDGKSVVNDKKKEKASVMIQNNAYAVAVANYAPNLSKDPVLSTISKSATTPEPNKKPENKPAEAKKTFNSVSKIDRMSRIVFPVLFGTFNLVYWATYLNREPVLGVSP
# [11] = target: T5, Gamma-aminobutyric acid receptor subunit alpha-1/alpha-2/beta-2/gamma-2; type: functional, cell-based; remark: listed apart in the source
# Note: assay procedure not described here.
smiles,measurement,setting,value
CC(=O)Oc1ccccc1C(=O)Nc1ncc([N+](=O)[O-])s1 [NITAZOXANIDE],AC50,[1],8 µM
same,AC50,[2],6.3 µM
CNCCC=C1c2ccccc2CCc2ccccc21 [NORTRIPTYLINE],AC50,[3],0.114 µM
COc1ccnc(C[S+]([O-])c2nc3ccc(OC(F)F)cc3[nH]2)c1OC (centres undefined) [PANTOPRAZOLE],AC50,[3],10.6 µM
same,AC50,[4],> 30 µM
same,AC50,[5],> 10 µM
same,AC50,[6],> 10 µM
same,AC50,[7],> 30 µM
same,AC50,[8],> 30 µM
CNC[C@H](O)c1cccc(O)c1 [PHENYLEPHRINE],AC50,[5],> 10 µM
same,AC50,[6],> 10 µM
same,AC50,[7],> 30 µM
same,AC50,[8],> 30 µM
same,AC50,[2],> 10 µM
O=C1NC(=O)C(c2ccccc2)(c2ccccc2)N1 [PHENYTOIN],AC50,[3],> 10 µM
same,AC50,[4],> 30 µM
same,AC50,[5],> 10 µM
same,AC50,[7],> 30 µM
same,AC50,[8],> 30 µM
same,AC50,[9],> 30 µM
CNC(=O)c1cc(Oc2ccc(NC(=O)Nc3ccc(Cl)c(C(F)(F)F)c3)c(F)c2)ccn1 [REGORAFENIB],AC50,[2],> 30 µM
NC(=O)c1ncn([C@@H]2O[C@H](CO)[C@@H](O)[C@H]2O)n1 [RIBAVIRIN],AC50,[3],> 10 µM
same,AC50,[5],> 10 µM
same,AC50,[7],> 10 µM
O=C(Nc1c(Cl)cncc1Cl)c1ccc(OC(F)F)c(OCC2CC2)c1 [ROFLUMILAST],AC50,[1],> 30 µM
same,AC50,[2],> 30 µM
CC[C@H]1OC(=O)[C@H](C)[C@@H](O[C@H]2C[C@@](C)(OC)[C@@H](O)[C@H](C)O2)[C@H](C)[C@@H](O[C@@H]2O[C@H](C)C[C@H](N(C)C)[C@H]2O)[C@](C)(O)C[C@@H](C)/C(=N\OCOCCOC)[C@H](C)[C@@H](O)[C@]1(C)O [ROXITHROMYCIN],AC50,[10],> 30 µM
same,AC50,[9],> 30 µM
CC(C)N(CCCCOCC(=O)NS(C)(=O)=O)c1cnc(-c2ccccc2)c(-c2ccccc2)n1 [SELEXIPAG],AC50,[3],> 10 µM
same,AC50,[1],> 30 µM
same,AC50,[2],> 30 µM
CCCCNc1ccc(C(=O)OCCN(C)C)cc1 [TETRACAINE],AC50,[3],> 10 µM
same,AC50,[4],> 30 µM
same,AC50,[5],> 10 µM
same,AC50,[6],1.42 µM
same,AC50,[7],> 30 µM
same,AC50,[8],> 30 µM
Cn1c(=O)c2[nH]cnc2n(C)c1=O [THEOPHYLLINE],AC50,[3],> 10 µM
same,AC50,[5],> 10 µM
same,AC50,[7],> 30 µM
same,AC50,[8],> 30 µM
CN1CCN(CCCN2c3ccccc3Sc3ccc(S(=O)(=O)N(C)C)cc32)CC1 [THIOPROPERAZINE],AC50,[1],0.15 µM
same,AC50,[10],> 30 µM
same,AC50,[11],> 30 µM
CC1(C)O[C@@H]2[C@@H](CO[C@@]3(COS(N)(=O)=O)OC(C)(C)O[C@@H]23)O1 [TOPIRAMATE],AC50,[3],> 10 µM
same,AC50,[1],> 10 µM
same,AC50,[4],> 30 µM
same,AC50,[5],> 10 µM
same,AC50,[6],> 10 µM
same,AC50,[7],> 30 µM
same,AC50,[8],> 30 µM
same,AC50,[2],> 10 µM
Cc1cc(CC(=O)O)n(C)c1C(=O)c1ccc(Cl)cc1 [ZOMEPIRAC],AC50,[1],> 30 µM
same,AC50,[2],> 30 µM
